Measured values published in patent US20070099822A1, “Regulation of tissue mineralization and phosphate metabolism by asarm peptides” (priority 2003, published 2007).
Where “and” joins values, the source holds several entries; their conditions need not be identical. Identical values can stand only once. Entries after “also recorded” stand apart in the source; their conditions may differ.

Assays:
MEPE-PHEX interaction = target: T1, MEPE-PHEX interaction (Homo sapiens, UniProt P78562); assay: Surface plasmon resonance, peptide solution competition of secPHEX-MEPE binding; settings: peptide pre-mixed with secPHEX, MEPE-RGD up to 85 μM
T1 construct: to generate a soluble, secreted form of PHEX; made in house; host or cells: secPHEX: mammalian cells (gift, University of Montreal); MEPE: S. frugiperda insect cells
T1 sequence (P78562 46-749 limits assumed): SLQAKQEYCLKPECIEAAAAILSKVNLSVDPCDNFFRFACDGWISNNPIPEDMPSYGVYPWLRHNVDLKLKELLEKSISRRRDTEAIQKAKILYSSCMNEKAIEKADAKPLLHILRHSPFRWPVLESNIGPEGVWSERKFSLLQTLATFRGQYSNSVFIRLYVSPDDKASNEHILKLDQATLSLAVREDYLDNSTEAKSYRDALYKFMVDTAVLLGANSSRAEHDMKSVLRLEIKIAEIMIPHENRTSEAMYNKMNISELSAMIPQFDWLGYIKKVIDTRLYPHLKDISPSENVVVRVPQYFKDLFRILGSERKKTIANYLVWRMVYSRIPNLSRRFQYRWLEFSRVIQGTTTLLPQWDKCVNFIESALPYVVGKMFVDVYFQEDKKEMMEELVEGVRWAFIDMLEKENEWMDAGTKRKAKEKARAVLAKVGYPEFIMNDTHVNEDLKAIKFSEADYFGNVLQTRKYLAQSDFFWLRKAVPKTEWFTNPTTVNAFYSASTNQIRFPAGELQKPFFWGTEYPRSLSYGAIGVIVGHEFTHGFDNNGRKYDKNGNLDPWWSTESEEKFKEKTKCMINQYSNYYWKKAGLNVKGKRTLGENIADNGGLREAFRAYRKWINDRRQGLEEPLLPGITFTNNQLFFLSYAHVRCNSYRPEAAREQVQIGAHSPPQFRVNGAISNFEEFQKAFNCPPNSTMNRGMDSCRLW
Text: Surface Plasmon Resonance: Synthetic peptides & competitive PHEX-MEPE binding studies. For these experiments CM-5 chips containing flow-cells immobilized with MEPE, PHEX and IgG ligands at 6000 RU were used. Just prior to SPR injection, stock solution of specific-peptide (as defined for each experiment; see Table 1), and dissolved in analyte buffer (HBS-P—Zn) […] The following equation was used to compute KDapp values: RU=Bmax/inhib×(peptide(μM))/KDapp+(peptide(μM)). The Bmax/inh value represents the maximal percentage inhibition change in RU (i.e., PHEX-MEPE binding) relative to the “non-peptide” control (0% inhibition of binding), using a constant analyte flow-solution of secPHEX of 250 nM against immobilized MEPE ligand at 6000 RU. […] The control MEPE-RGD peptide had no effect on MEPE-PHEX interactions.

mice [1] = assay: Example II: subcutaneous injection twice a day for three weeks, serum and urine; format: in vivo; settings: for serum phosphate: three weeks, vehicle 9.62; for serum calcium vs vehicle / serum alkaline phosphatase vs vehicle: etidronate 60 mg/kg/day; for serum alkaline phosphatase vs vehicle: ASARM 1.3 and 4 mg/kg/day (both groups); for % FEP vs control: two injections per day over three weeks, ASARM 1.34 and 4.00 mg/kg/day
Experimental: Four groups of 7 mice were injected subcutaneously twice a day for three weeks. The first group received vehicle only as a control, the second group received etidronate at 60 mg/kg/day, the third group received ASARM peptide at 1.3 mg/kg/day (“low ASARM”), and the fourth group received ASARM peptide at 4 mg/kg/day (“high ASARM”). Calcein/tetracycline was administered to the animals 4 days and 2 days before the end of the protocol for visualization purposes.
(§1) FIGS. 14a and 14b show the Fractional Excretion of Phosphate (FEP) in two different experiments. In the experiment shown in FIG. 14a, each of three groups of mice was treated with one injection per day, over two weeks, of either: (a) vehicle alone, (b) etidronate (10 mg/kg/day), or (c) ASARM peptide (2 mg/kg/day). In the experiment show in FIG. 14b, each of four groups of mice was treated with two injections per day, over three weeks, of either: (a) vehicle alone, (b) etidronate (60 mg/kg/day), (c) ASARM (1.34 mg/kg/day; “ASARM-low”), or (d) ASARM (4.00 mg/kg/day; “ASARM-high”).

mice [2] = assay: Example III: subcutaneous injection once a day for 12 days, mineralization and phosphate handling; format: in vivo; settings: ASARM peptide 2 mg/kg/day; for Phosphate Excretion Index (PEI) / increase in urinary calcium levels compared to the control / inhibition in tooth mineralization / inhibition of mineralization in femur / inhibition of mineralization in tibia/femur / mineralization of calvariae and long bones / renal phosphorous clearance vs vehicle / serum calcium vs control / serum phosphate / tubular reabsorption of phosphate vs vehicle / urinary phosphate excreted in a 24-hour period vs control / urine creatinine / urine phosphate / Fractional Excretion of Phosphate (FEP) vs vehicle / inhibition of mineralization of calvariae: etidronate 10 mg/kg/day; for Fractional Excretion of Phosphate (FEP) vs vehicle / inhibition of mineralization of calvariae: s.c. once a day 12 days; for inhibition of mineralization of calvariae: calcein
Experimental: as §1
Three groups of 5 mice each received a subcutaneous injection once a day for 12 days. […] Calcein was given at 20 mg/kg/day on days 3, 5, 8, and 10 to allow visualization. The first group of mice were given an injection of vehicle only. The second group of mice were given etidronate at 10 mg/kg/day. The third group of mice were given ASARM peptide at 2 mg/kg/day.

male ICR Swiss mice = assay: Example VI: subcutaneous PO4-ASARM-peptide or etidronate, calcein fluorescence and Sanderson osteoid staining; format: in vivo
Experimental: Subcutaneous administration of PO4-ASARM-peptide, etidronate (EHDP), and calcein. Three separate groups of male ICR Swiss mice (4-5 weeks) were subcutaneously injected once a day (9:00AM), for 12 days except for days 6 and 7 with 50 μL solutions of either (1) Eitidronate (EHDP) (10 mg/kg/day); (2) PO4-ASARM-peptide (2 mg/kg/day); or (3) vehicle consisting of 5 mM HEPES pH 7.4/150 mM NaCL/0.1% BSA. The synthetic PO4-ASARM-peptide was dissolved in vehicle (1.0 mg/mL). Etidronate was first dissolved in 150 mM NaCl and then buffered to pH 7.5 with 1M NaOH to give a 5 mg/mL solution. The 10 mg/kg/day doses of etidronate have previously been reported to inhibit mineralization in rats and were used as positive controls (Trechsel, et al., Am J Physiol 232(3):E298-305, 1977; Bonjour, et al., Am J Physiol 229(2):402-8, 1975). All three groups were subcutaneously injected with calcein (20 mg/kg/day) on days 3, 5, […]. The degree of calcein fluorescence and/or fluorescence-quenching is an indicator of mineralization status (see next section). The calcein injections when given were administered 1 h after the daily injections of PO4-ASARM-peptide, EHDP or vehicle. Animals were then terminated humanely and calvariae plus femurs/tibia were fixed in 70% ethanol (non-decalcified). After fluorescence imaging (see FIG. 35) calvariae were processed in plastic and stained with Sanderson's stain (see below). Five animals per group were used for statistical analysis of fluorescence quenching and histological Sanderson staining.
Calcein fluorescence in mice calvariae, hind-limbs & fluor-imager analysis of mineralization. A Bio-Rad (Hercules, Calif.) FluorImager^max fluorescent imager was used to simultaneously image all the samples from each of the 3 groups (15 animals; five animals per group). This consisted of 10 tibia/femurs and 5 calvariae per group. Samples were placed on top of the FluorImager plate contained within a light-tight box. Ultra-violet light was used to generate calcein-mediated epi-fluorescence and the fluorescent-image was captured on a −40° C., peltier-cooled, 1,340×1040 pixel CCD resolution, CCD digital-camera. Quantitation of fluorescence was carried out using Quantity-1 (Bio-Rad, Hercules, Calif.) fluorescence-software. Pixel saturation was prevented by internal software calibration and exposure adjustment. All fluorescence readings were thus accurately quantitative and non-saturating. Photo-micrographic UV fluorescent analysis of calvarial cross sections embedded in plastic and mounted as slides (<100 micrometer sections) was also undertaken and a description of the fixation and processing is given in the next section.
Sanderson-staining and fluorescence detection of calvarial osteoid & mineralized bone. Staining of non-decalcified calvarial sections was performed using the method described by Sanderson and Bachus (Staining technique to differentiate mineralized and demineralized bone in ground sections, J Histotechnol 20(2): 119-122, 1997). This technique provides differential staining between unmineralized osteoid and mineralized bone. Prior to staining, calvariae were dissected and attached tissue removed. Calvariae were then placed in 70% ethanol for further fixation as described by Sanderson and Bachus (supra). After fixing and processing undecalcified calvariae were embedded in plastic (LR-white acrylic resin (London Resin Co., Reading, England)) as previously described (Garrett, et al., Selective inhibitors of the osteoblast proteasome stimulate bone formation in vivo and in vitro, J Clin Invest 111(11):1771-1782, 2003). Plastic embedded sections were ground to <100 micrometers using a specialized grinding-pestle as described by Donath and Breuner (A method for the study of undecalcified bones and teeth with attached soft tissues. The Sage-Schliff (sawing and grinding) technique, J Oral Pathol 11(4):318-26, 1982). […]

[3] = PO4-ASARM-peptide 2 mg/kg/day, etidronate 10 mg/kg/day

Molecule	serum calcium vs vehicle (mice [1]; ASARM 1.3 and 4 mg/kg/day)	serum alkaline phosphatase vs vehicle (mice [1])	increase in urinary calcium levels compared to the control (mice [2])	inhibition in tooth mineralization (mice [2])	inhibition of mineralization in femur (mice [2])	inhibition of mineralization in tibia/femur (mice [2])	mineralization of calvariae and long bones (mice [2])	serum calcium vs control (mice [2])	tubular reabsorption of phosphate vs vehicle (mice [2])	urinary phosphate excreted in a 24-hour period vs control (mice [2])	urine creatinine (mice [2])	urine phosphate (mice [2])	Fractional Excretion of Phosphate (FEP) vs vehicle (mice [2])	inhibition of mineralization of calvariae (mice [2])	also measured
GSGYTDLQERGDNDISPFSGDGQPF (Homo sapien) [MEPE-RGD, 15, negative control, reference compound]															inhibition of MEPE-PHEX interaction (MEPE-PHEX interaction): did not competitively inhibit; also recorded: no effect; inhibition of MEPE-PHEX interaction (MEPE-PHEX interaction; listed as MEPE-RGD-peptide): no inhibition
CC(O)(P(=O)(O)O)P(=O)(O)O [etidronate, reference compound]	lower serum calcium levels	significantly higher levels	75.9%	53.2%	15.8%	19.2%	greatly inhibited	slightly higher level	higher	far less phosphate	significant elevation; also recorded: significantly elevated	induced hypophosphaturia	significantly lower	48.4%	serum phosphate (mice [1]; etidronate 60 mg/kg/day s.c. twice a day): 10.04 mg/dL; Phosphate Excretion Index (PEI) (mice [2]): lower PEI; renal phosphorous clearance vs vehicle (mice [2]): significantly less phosphate clearance; serum phosphate (mice [2]): induce hyperphosphatemia; increase of osteoid layer thickness relative to vehicle (male ICR Swiss mice; [3]): 2.35 fold; percentage quenching of calvarial calcein fluorescence relative to vehicle (male ICR Swiss mice; [3]): 48% and 48.4%; calvariae calcein fluorescence (male ICR Swiss mice; PO4-ASARM-peptide 2 mg/kg/day, etidronate 10 mg/kg/day, s.c. 12 days, vehicle 1100.5): 417.7 fluorescent intensity units; calvarial osteoid relative thickness (Sanderson staining) (male ICR Swiss mice; PO4-ASARM-peptide 2 mg/kg/day, etidronate 10 mg/kg/day, vehicle 2.3): 5.4; lamellar calcein fluorescent layers in calvarial cross-sections (male ICR Swiss mice; four layers visible in vehicle group): complete absence
ASARM peptide: ASARM peptide injected subcutaneously in Examples II and III; sequence and phosphorylation not stated; data resemble PO4-ASARM-peptide of Example VI (RDDSSESSDSGSSSESDGD)	lower serum calcium levels	levels similar to that of the vehicle; also recorded: levels similar to that of the control	56.3%	35.3%	44.6%	24.4%	mineralization was inhibited	did not show a significantly elevated level	higher	far less phosphate	significant elevation; also recorded: significantly elevated	induced hypophosphaturia	significantly lower; also recorded: decreased	62.0%	urinary phosphate excretion over 24 hours vs etidronate and control groups (mice [1]; ASARM 1.3 and 4 mg/kg/day): significantly higher; serum phosphate (mice [1]; ASARM high, 4 mg/kg/day s.c. twice a day): 10.01 mg/dL; serum phosphate (mice [1]; ASARM low, 1.3 mg/kg/day s.c. twice a day): 10.60 mg/dL; % FEP vs control (mice [1]): increase in FEP; % FEP vs control (mice [1]; listed as ASARM): much higher % FEP levels; serum alkaline phosphatase vs etidronate or vehicle groups (mice [2]): lower levels; Phosphate Excretion Index (PEI) (mice [2]; listed as ASARM): much lower PEI; mineralization of calvariae and long bones (mice [2]; listed as ASARM): greatly inhibited; renal phosphorous clearance vs vehicle (mice [2]; listed as ASARM): significantly less phosphate clearance; serum phosphate (mice [2]; listed as ASARM): induced hyperphosphatemia; urinary phosphate excreted in a 24-hour period vs control (mice [2]; listed as ASARM): far less; urine phosphate (mice [2]; listed as ASARM): hypophosphaturia; % FEP vs control (mice [2]; one injection per day over two weeks): significantly lower % FEP; also recorded: decrease in FEP
